Experimental data published in patent US20250319206A1, “CRISPR/CAS GENE EDITING OF NEH4 AND/OR NEH5 DOMAINS IN NRF2” (Christina Care Gene Editing Institute, Inc., priority 2024, published 2025).

Key:
NRF2 = NRF2 protein analysis by western blot in FaDu cells; type: cell-based, Human; details: 72-hour timepoint, relative to GapDH, normalized to wild-type
Procedure: Total protein was isolated from cells in RIPA buffer (Pierce), incubated on ice for 30 minutes with vortexing every 10 minutes. Samples were centrifuged at 14,000×G at 4° C. for 15 minutes and the supernatant was saved. Protein extracts were quantified using a BCA assay (Pierce) and 20 μg of protein was loaded onto a Biorad 4-20% polyacrylamide pre-cast gel (Biorad). Protein was transferred onto a […] nitrocellulose blot using the Turboblot dry transfer system (Biorad). The membrane was blocked in 5% milk in TBS-T for 2 hours at room temperature and stained with anti-NRF2 1:1000 (Abcam, ab62352) and anti-GAPDH 1:5,000 (Cell Signaling Technology, 97166). Blots were washed 3× at room temperature in TBS-T and stained with secondary antibodies conjugated to HRP 1:10,000 (Abcam, ab205718 or Thermofisher, PI31430). Blots were imaged using the Pierce Femto western blotting substrate (Pierce). Bands were quantified using the FIJI gel analysis tool package.

NRF2 gene = NRF2 gene editing (indel/frameshift) analysis by NGS and CRISPResso2 in FaDu cells; type: cell-based, Human; details: for knocking out NRF2 (DNA sequence data): exon 4
Procedure: The NRF2 gene-coding sequence was entered into SnapGene and the following gRNAs were selected for targeting exon 2: (sg3) 5′-[…]-3′ (SEQ ID NO:75); as well as two gRNAs targeting Exon 4: (sg76) 5′-[…]-3′ (SEQ ID NO:16), (sg83) 5′-[…]-3′ (SEQ ID NO:24). Based on the gRNA design, synthetic single gRNAs were ordered from Synthego (Menlo Park, California, USA). CleanCap® Cas9 mRNA (5moU) was ordered from TriLink Biotechnologies (San Diego, CA, USA).
Either one million cells were seeded to a 75 cm^2 tissue culture flask or 2.5 million cells were seeded to a 175 cm^2 tissue culture flask 24 hours prior to transfection and allowed to reach 60-80% confluency. On the day of the transfection, cells were treated with Lipofectamine MessengerMAX reagent (Thermo Fisher Scientific, Waltham, MA) bearing 10 μg or 25 μg of Cas9mRNA and 10 μg or 25 μg of sgRNA, suspended in Opti-MEM, per the manufacturer's instructions. 39 μL or 97.5 μL of MessengerMax lipofectamine reagent was diluted in 1.5 mL or 3.75 mL OPTI-MEM medium and vortexed twice was incubated for ten minutes at room temperature, during which time the culture media was replaced with 15 mL or 25 mL of fresh media, as appropriate to the cell line. A total of 20 μg or 50 μg of RNA was then added to the diluted lipofectamine, consisting of 10 μg or 25 μg Cas9 mRNA and 10 μg or 25 μg sgRNA. The suspension was incubated at room temperature for an additional five minutes before being added, in full, to the tissue culture flask, which was then swirled gently to disperse the reagent. […]
Targeted amplicon libraries were prepared using Illumina's 16S metagenomic sequencing library preparation protocol for MiSeq. Genomic DNA was extracted from cells using the Qiagen's DNeasy Blood & Tissue kit (Quiagen, Hilden, Germany) or QuickExtract reagent (Biosearch Technologies). The region surrounding the CRISPR target site for Exon 2 (398 bp) and Exon 4 (402 bp) of the NRF2 gene were amplified using the 2× Phusion Flash PCR master mix (Thermo Fisher Scientific, Waltham, MA). Post amplification, samples were cleaned using AMPure beads and DNA concentration was measured using the Qubit assay (Thermo Fisher Scientific, Waltham, MA). Samples are also run on TapeStation (Agilent Technologies Santa Clara, CA) to verify the presence of the desired amplicon. The samples were indexed using either the IDT for Illumina DNA/RNA UD indexes set A (Illumina San Diego, CA). Samples were again quantified using Qubit and average library size was calculated using the Tapestation amplicon size. Once pooled to the loading concentration, the libraries were sequenced using the MiSeq Reagent kit v2 (Illumina, San Diego, CA). Only the data that passed data QC in Sequencing Analysis Viewer, was analyzed using CRISPResso2 (CRISPResso2 website) to understand gene editing efficiency and frameshift analysis.

T98G cells = assay: Chemosensitivity testing, CellTiter-Glo 2.0, T98G cells; type: cell-based, human; details: increasing concentrations of temozolomide and doxorubicin, 72 hr
Source text: FIG. 5A-D: Glioblastoma cells targeting exon 4 of NRF2 and assessment of chemotherapy response. T98G cells (FIG. 5A) and LN229 cells (FIG. 5B) were transfected with each respective gRNA. Genomic DNA from each cell population was isolated and amplified across exon 4 of the NRF2 gene. Amplicons were sanger sequenced and analyzed for indels at the CRISPR target site. Raw sequence files were aligned using the software program, DECODR, to display the indel pattern (listed as INDEL and frameshift %). (FIG. 5C-D) Chemosensitivity Testing in response to NRF2 targeting. Chemosensitivity was measured via CellTiter-Glo® 2.0 Assay. Untargeted and CRISPR targeted T98G cells were treated with increasing concentrations of (FIG. 5C) temozolomide or (FIG. 5D) doxorubicin for 72 hr. and then evaluated for cell viability. The average relative viability of cells normalized to the untreated Wt. was graphed. The error bars represent % CV.
Two human glioblastoma-derived cell lines were used to assess CRISPR activity and downstream effects of NRF2 knockout. FIG. 5 compares targeting exon 4 by two sgRNAs (sg76 (SEQ ID NO:16) and sg83 (SEQ ID NO:24)) and chemosensitivity assessment after targeting in both glioblastoma T98G and LN229 cell lines. Both cell lines were transfected using CRISPRmax lipofection with each respective gRNA and Cas9 mRNA. […]

[1] = 13 days (two weeks) after transfection

Row | Substance | NRF2 protein knock down (NRF2) | editing (NRF2 gene; 72 hr) | editing (NRF2 gene; [1]) | frameshift mutations (of the total indels) (NRF2 gene; exon 2, 72 hours) | total indel population (NRF2 gene; exon 2, 72 hours) | sensitivity to treatment (T98G cells) | knocking out NRF2 (DNA sequence data) (NRF2 gene)
1 | sg3: gRNA targeting the DLG motif in exon 2 of NRF2; 5′-TATTTGACTTCAGTCAGCGA-3′ or TGGAGGCAAGATATAGATCT (further chemistry not given here) [reference compound] | 30% | 85.5% | 73.45% | exceeded 76% | exceeded 76% | – | –
2 | sg76: gRNA targeting exon 4 of NRF2; TCACTTGTTCCTGATATTCC CGG (guide TCACTTGTTCCTGATATTCCCGG; listed as DNA, chemistry not given here) | 90% | 87% | 49.30% | – | – | increased sensitivity to treatment | efficient in knocking out NRF2 at exon 4
3 | sg83: gRNA targeting exon 4 of NRF2; GTAGCCCCTGTTGATTTAGA CGG (guide GTAGCCCCTGTTGATTTAGACGG; listed as DNA, chemistry not given here) | 90% | 86% | 40.95% | – | – | increased sensitivity to treatment | efficient in knocking out NRF2 at exon 4
